target: T1, mTOR protein (Homo sapiens, UniProt P42345); assay: mTOR enzyme activity assay (immunoprecipitated mTOR, recombinant PHAS-1 as substrate); format: biochemical; settings: mTOR isolated from HeLa cell cytoplasmic extract by immunoprecipitation; recombinant PHAS-1 substrate
T1 construct: mTOR protein was isolated from HeLa cell cytoplasmic extract by immunoprecipitation; endogenous in cells; host or cells: HeLa cell cytoplasmic extract (immunoprecipitation)

| IC50 [nM] | SMILES |
| --- | --- |
| < 1500 | C[C@H]1COCCN1c1nc(N2CCOC(CN3C(=O)c4cccc(N)c4C3=O)C2)nc2ncccc12 (stereo partly drawn) [5g] |
| < 1500 | C[C@H]1COCCN1c1nc(N2CCOC(CNC(=O)c3cccs3)C2)nc2ncccc12 (stereo partly drawn) [5k] |
| < 1500 | C[C@H]1COCCN1c1nc(N2CCOC(Cn3c(=O)oc4ccccc43)C2)nc2ncccc12 (stereo partly drawn) [5h] |
| < 1500 | COC(=O)C(=O)NCC1CN(c2nc(N3CCOC[C@@H]3C)c3cccnc3n2)CCO1 (stereo partly drawn) [5m] |
| < 1500 | C[C@H]1COCCN1c1nc(N2CCOC(COc3nccc4ccccc34)C2)nc2ncccc12 (stereo partly drawn) [5z] |

Second part, the compound before the results:

| SMILES | IC50 [nM] |
| --- | --- |
| OCCC1CCCCN1c1nc(N2CCOCC2)c2cccnc2n1 (stereo not drawn) [4o] | < 1500 |
| c1cnc2nc(N3CCCCC3)nc(N3CCOCC3)c2c1 [4y] | < 1500 |
| C[C@H]1CCCCN1c1nc(N2CCCOCC2)c2cccnc2n1 [4ab] | < 1500 |
| C[C@@H]1CN(c2nc(N3CCOC[C@@H]3C)c3cccnc3n2)C[C@H](C)O1 [4af] | < 1500 |
| C[C@H]1COCCN1c1nc(N2CCOCC2c2ccccc2)nc2ncccc12 (stereo partly drawn) [4ah] | < 1500 |
| C[C@H]1COCCN1c1nc(N2CCOC(c3ccccc3)C2)nc2ncccc12 (stereo partly drawn) [4ag] | < 1500 |
| NC(=O)C1CCN(c2nc(N3CCOCC3)c3ccncc3n2)CC1 [4d] | < 1500 |
| C[C@@H]1CN(c2nc(N3CCOCC3)c3cccnc3n2)C[C@H](C)O1 [4c] | < 1500 |
| CCC1CCCCN1c1nc(N2CCOCC2)c2cccnc2n1 (stereo not drawn) [4n] | < 1500 |
| FC(F)(F)C1CCCN(c2nc(N3CCOCC3)c3cccnc3n2)C1 (stereo not drawn) [4h] | < 1500 |

Source: patent US20060199803A1, “Compounds” (Kudos Pharmaceuticals Ltd, priority 2005, published 2006)
